Calls of active or inactive are those of the source. The rule behind the calls is not given here.
How the values were obtained:
[1] = target: 5-hydroxytryptamine receptor 6 (Homo sapiens, UniProt P50406); assay: Antagonist activity at human 5HT6 receptor in HEK293 cells assessed as inhibition of serotonin-induced cAMP accumulation pretreated for 15 mins before serotonin challenge measured after 30 mins; format: functional, cell-based
[2] = target: T1, 5-hydroxytryptamine receptor 2B (Homo sapiens, UniProt P41595); assay: Agonist activity at human 5HT2B receptor in HEK293 cells assessed as stimulation of intracellular calcium mobilization by Fura-2AM dye based spectrofluorimetry
T1 sequence (P41595 whole entry): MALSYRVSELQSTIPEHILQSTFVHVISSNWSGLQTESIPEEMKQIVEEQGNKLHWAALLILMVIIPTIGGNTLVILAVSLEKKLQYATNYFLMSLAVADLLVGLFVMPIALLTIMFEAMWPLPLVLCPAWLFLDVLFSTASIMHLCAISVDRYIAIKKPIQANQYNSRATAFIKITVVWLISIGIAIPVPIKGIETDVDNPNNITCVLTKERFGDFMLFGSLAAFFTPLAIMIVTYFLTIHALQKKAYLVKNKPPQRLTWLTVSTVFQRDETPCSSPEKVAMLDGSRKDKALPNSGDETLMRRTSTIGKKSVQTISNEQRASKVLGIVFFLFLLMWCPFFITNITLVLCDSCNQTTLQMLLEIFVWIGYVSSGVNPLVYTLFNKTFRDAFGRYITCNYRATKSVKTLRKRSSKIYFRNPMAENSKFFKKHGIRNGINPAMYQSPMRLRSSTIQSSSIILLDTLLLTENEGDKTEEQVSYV

[3] = target: T1, 5-hydroxytryptamine receptor 2B; assay: Antagonist activity at human 5HT2B receptor in HEK293 cells assessed as inhibition of alpha-ME-5-HT-induced intracellular calcium mobilization pretreated for 15 secs before alphaME-5-HT addition by Fura-2AM dye based spectrofluorimetry
hERG (KCNH2) = hERG (KCNH2) (Homo sapiens, UniProt Q12809); assay: Inhibition of human recombinant ERG at 10 uM by patch clamp assay; settings: recombinant human ERG channel
Chain of hERG (KCNH2) (Q12809 whole entry): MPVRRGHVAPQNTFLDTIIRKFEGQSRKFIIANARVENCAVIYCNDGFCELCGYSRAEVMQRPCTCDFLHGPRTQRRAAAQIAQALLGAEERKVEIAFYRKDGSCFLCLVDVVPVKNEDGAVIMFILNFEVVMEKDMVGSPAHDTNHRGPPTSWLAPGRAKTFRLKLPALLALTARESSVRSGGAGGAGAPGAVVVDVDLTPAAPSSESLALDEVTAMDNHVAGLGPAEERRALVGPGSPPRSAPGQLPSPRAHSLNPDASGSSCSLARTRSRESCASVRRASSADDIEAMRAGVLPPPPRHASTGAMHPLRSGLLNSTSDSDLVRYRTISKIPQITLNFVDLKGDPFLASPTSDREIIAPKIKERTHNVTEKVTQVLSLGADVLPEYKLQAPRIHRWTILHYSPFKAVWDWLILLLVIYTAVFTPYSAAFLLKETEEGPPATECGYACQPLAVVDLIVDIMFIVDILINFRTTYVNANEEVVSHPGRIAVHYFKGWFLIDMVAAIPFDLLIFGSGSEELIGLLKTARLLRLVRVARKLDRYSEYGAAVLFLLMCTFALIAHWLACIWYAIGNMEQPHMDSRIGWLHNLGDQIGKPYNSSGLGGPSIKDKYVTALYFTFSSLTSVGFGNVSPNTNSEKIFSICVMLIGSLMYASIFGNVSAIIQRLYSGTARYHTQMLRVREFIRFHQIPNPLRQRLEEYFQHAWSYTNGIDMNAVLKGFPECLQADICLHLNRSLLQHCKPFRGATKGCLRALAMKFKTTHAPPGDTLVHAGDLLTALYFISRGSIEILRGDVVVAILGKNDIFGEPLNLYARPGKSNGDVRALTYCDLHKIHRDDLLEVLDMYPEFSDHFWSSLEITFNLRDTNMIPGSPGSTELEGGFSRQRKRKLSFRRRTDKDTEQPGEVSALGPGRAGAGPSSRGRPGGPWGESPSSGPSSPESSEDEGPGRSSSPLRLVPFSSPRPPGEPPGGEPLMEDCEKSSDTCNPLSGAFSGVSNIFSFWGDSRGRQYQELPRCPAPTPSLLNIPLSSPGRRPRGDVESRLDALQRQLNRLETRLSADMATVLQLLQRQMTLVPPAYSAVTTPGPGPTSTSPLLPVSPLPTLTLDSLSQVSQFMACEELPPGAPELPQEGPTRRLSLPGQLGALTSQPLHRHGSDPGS

Chain of 5-hydroxytryptamine receptor 6 (P50406 whole entry): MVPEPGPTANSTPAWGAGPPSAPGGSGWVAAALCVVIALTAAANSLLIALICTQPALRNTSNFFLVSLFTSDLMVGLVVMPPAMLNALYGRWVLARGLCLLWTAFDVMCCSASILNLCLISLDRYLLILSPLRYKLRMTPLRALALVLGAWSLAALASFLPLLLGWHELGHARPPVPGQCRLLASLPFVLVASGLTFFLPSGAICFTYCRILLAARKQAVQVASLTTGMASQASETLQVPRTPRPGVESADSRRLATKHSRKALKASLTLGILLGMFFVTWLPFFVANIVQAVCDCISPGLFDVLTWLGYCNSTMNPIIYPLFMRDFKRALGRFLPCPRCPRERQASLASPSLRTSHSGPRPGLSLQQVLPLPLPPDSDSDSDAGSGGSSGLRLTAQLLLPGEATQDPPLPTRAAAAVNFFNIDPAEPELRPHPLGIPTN

SMILES	IC50 [1] [µM]	Activity [2]	IC50 [3] [µM]	inhibition at 10 µM (hERG (KCNH2)) [%]
CSc1nn2c3c(c(C)nc2c1S(=O)(=O)c1ccccc1)CCCC3	0.0168	inactive	0.161	
CSc1nn2c3c(cnc2c1S(=O)(=O)c1ccccc1)CCC3	0.006	inactive	0.118	
CSc1nn2c(C)c3c(nc2c1S(=O)(=O)c1ccccc1)CCCC3		inactive	0.127	25
CSc1nn2cc3c(nc2c1S(=O)(=O)c1ccccc1)CCCC3	0.0985			
CSc1nn2c3c(cnc2c1S(=O)(=O)c1ccccc1)CCCC3	0.0075	inactive	0.411	

Reference: ChEMBL document CHEMBL1156328, “Synthesis of cycloalkane-annelated 3-phenylsulfonyl-pyrazolo[1,5-a]pyrimidines and their evaluation as 5-HT6 receptor antagonists” (Bioorg Med Chem Lett, 2010)
